Common to all, as to assay: inhibition of tumour cell growth, NCI panel, 48 h
Assay [1] relates to CCRF-CEM leukemia.
The subject of assay [2] is KM12 colon.
For assay [3], the system named is HOP-92 NSCLC.
For assay [4], the system named is NCI-H23 lung.
Assay [5] has as its system SW-620 colon.
For assay [6], the system named is K-562 leukemia.
The test system of assay [7] is HOP-62 NSCLC.
The subject of assay [8] is SN12C renal.
The subject of assay [9] is UACC-257 melanoma.

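A five-concentration, 48-hour dose response in 96-well plates underlies each endpoint, interpolated linearly between surrounding concentrations. GI50: concentration for 50% inhibition of growth. TGI is the concentration that stops growth completely.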

Here are results for 9 molecules from PubChem BioAssay (NCI).

As to `c1ccc(Cn2cnc3ccc(-c4nc(-c5ccc6c(c5)ncn6C5CCCCC5)cn5ccnc45)cc32)cc1`, the GI50 was 2.18 µM in assay [1], 2.08 µM in assay [2], 1.25 µM in assay [3] and 1.88 µM in assay [4]. The TGI in assay [1] was above 100 µM; in assay [2], 4.93 µM; in assay [3], 2.62 µM; in assay [4], 4.49 µM.

In the case of `Cn1c2ccccc2c2c(=O)c3ccccc3[nH]c21`, the GI50 is 22.1 µM in assay [2]; 40.7 µM in [5]; above 100 µM in assay [6]; 38.9 µM in [7]; 38.5 µM in [8]; 30.5 µM in [4]. For the same molecule, the TGI in assay [2], in [5], in [6], in [7], in [8] and in assay [4] was above 100 µM in each case.

Consider `C=CCOC(=O)CC[N+]1=CCC(c2ccccc2)(c2ccccc2)O1`, for which the TGI in [2], in assay [3], in [5], in [6], in assay [7] and in [8] was above 100 µM throughout. Further, the TGI in [9] and in assay [4] was above 100 µM each time.

As to `COc1cc2cnc3c4ccccc4ccc3c2cc1OC`, the TGI in [1], in assay [2], in [5], in assay [6], in [7] and in assay [8] was above 100 µM in each case. For the same molecule, the TGI in [9] and in assay [4] was above 100 µM in each case.

As to `Cn1cc(-c2csc(-c3cn(C)c4ccccc34)n2)c2cnccc21`, the GI50 in assay [1] was 1.78 µM; in [2] it was 1 µM; in assay [5], 1.85 µM; in [7], 1.67 µM; in assay [8], 1.66 µM; in assay [9], 1.94 µM. In assay [4], the GI50 is 1.64 µM. The TGI in [1] turned out to be 3.86 µM; in [2], 2.48 µM; in assay [5], 3.63 µM; in assay [7], 3.85 µM; in assay [8], 3.1 µM; in assay [9] it was 3.5 µM. Besides, the TGI in [4] stood at 3.44 µM.

As for `CCSc1nc(N)c2cn[nH]c2n1`, the GI50 in assay [2] is 22 µM; in [3], 1.37 µM; in assay [5], 31.7 µM; in [6], 37.3 µM; in assay [7], 49 µM; in assay [8], 28.7 µM. Besides, the GI50 was 71.1 µM in assay [9] and 20.7 µM in assay [4]. Besides, the TGI in [2] is 59.6 µM; in assay [3], 93.3 µM; in assay [5], above 100 µM; in assay [6], above 100 µM; in assay [7], above 100 µM; in assay [8], 70.9 µM. Further, the TGI is above 100 µM in [9] and 58.9 µM in assay [4].

Take `C[C@H]1[C@H](C)CC[C@]2(C(=O)NCCNCCN)CC[C@]3(C)C(=CC[C@@H]4[C@@]5(C)CCC(=O)C(C)(C)[C@@H]5CC[C@]43C)[C@H]12`: the GI50 in [2] was 1.85 µM; in assay [3], 1.73 µM; in [5] it was 1.84 µM; in assay [6], 2.23 µM; in assay [8], 1.61 µM; in assay [9] it was 1.84 µM. Also, the GI50 in assay [4] is 2.8 µM. For the same molecule, the TGI in [2] was determined as 3.42 µM; in [3], 4.82 µM; in assay [5] it was 3.47 µM; in [6], 5.35 µM; in assay [8], 2.98 µM; in assay [9], 3.89 µM. Also, the TGI in assay [4] came out at 8.3 µM.

In the case of `O=C(c1ccc2ccccc2c1)c1c(C(F)(F)F)n([O-])c2ccc(Cl)cc2[n+]1=O`, the GI50 in assay [2] was 1.08 µM; in [3], 0.518 µM; in assay [5] it was 1.41 µM; in assay [6], 1.22 µM; in assay [7] it was 1.86 µM; in [8] it was 1.69 µM. Also, in assay [9], the GI50 is 1.68 µM. Besides, the TGI in assay [2] was 2.39 µM; in [3], 2.03 µM; in [5], 2.7 µM; in assay [6], 2.65 µM; in [7] it was 3.46 µM; in [8] it was 3.2 µM. Moreover, the TGI in assay [9] was 3.13 µM.

On to `O=c1c2c3c(sc2n2c(-c4cc(-c5ccccc5)nn4-c4ccccc4)nnc2n1Cc1ccccc1)CCCC3`, for which the GI50 in [2], in [6], in [7], in assay [8], in assay [9] and in [4] was above 100 µM in each case. Besides, the TGI in [2], in assay [6], in assay [7], in assay [8], in assay [9] and in assay [4] was above 100 µM each time.
